Experimental data as given in patent publication US10208056B2, “Condensed tricyclic compounds as protein kinase inhibitors” (FUNDACIÓN DEL SECTOR PÚBLICO ESTATAL CENTRO NACIONAL DE …, priority 2015, dated 2019).

Assays:
[1] = target: Haspin kinase (Homo sapiens (Human), UniProt Q8TF76); test: Haspin kinase assay (ADP-Glo); format: biochemical; conditions: ATP 150 μM
Text: The kinase assay relies on ADP-Glo^KM biochemical kinase assay (Promega). This is a luminescent kinase assay that measures ADP formed from a kinase reaction. Then ADP is converted into ATP, which is transformed into a light signal by Ultra-Glo™ Luciferase. The luminescent signal positively correlates with kinase activity. The assay measures the intrinsic ATPase activity (in the absence of peptidic substrate as phosphate acceptor).
The enzyme was purchase from Invitrogen (PV5708) as the kinase domain of GST tagged recombinant human proteins.
Assay conditions were as indicated by the kit manufacturers with the following adaptations: • Assay buffer: 15 mM HEPES pH 7.4, 20 mM NaCl, 1 mM EGTA, 0.02% Tween 20, 10 mM MgCl2, 0.1 mg/ml BGG • Assay volume: 20 μl • Incubation time and temperature: 60 min at 30° C. • Haspin concentration: 20 nM • ATP concentration: 150 μM • Tested compound: Serial 1:3 dilutions • Final DMSO concentration in the assay: 1%
Assays were performed in 384-well plates. The final read out was generated using an EnVision plate reader (Perkin-Elmer). Luminescent relative units are normalized against the control activity included for each compound (i.e., 100% Haspin activity, without compound) and the percentage of inhibition is calculated.

[2] = target: CDK8/Cyclin C (Homo sapiens (Human), UniProt P49336); test: CDK8/Cyclin C binding assay (LanthaScreen Eu-Kinase Binding Assay); conditions: binding assay
Sequence of CDK8/Cyclin C (P49336 whole entry): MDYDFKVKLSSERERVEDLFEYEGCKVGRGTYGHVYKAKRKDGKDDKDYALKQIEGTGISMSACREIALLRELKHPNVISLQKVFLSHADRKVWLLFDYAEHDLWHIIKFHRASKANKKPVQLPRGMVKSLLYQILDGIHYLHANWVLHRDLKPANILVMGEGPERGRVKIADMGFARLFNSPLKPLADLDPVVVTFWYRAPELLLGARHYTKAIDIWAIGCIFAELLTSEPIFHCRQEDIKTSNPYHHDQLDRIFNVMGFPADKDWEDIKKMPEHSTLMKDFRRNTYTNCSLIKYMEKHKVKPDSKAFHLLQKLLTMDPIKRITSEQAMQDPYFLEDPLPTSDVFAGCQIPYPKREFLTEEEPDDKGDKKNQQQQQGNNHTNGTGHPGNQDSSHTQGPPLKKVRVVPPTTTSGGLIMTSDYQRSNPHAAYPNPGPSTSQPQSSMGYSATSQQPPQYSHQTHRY
Sequence of CDK8/Cyclin C (P24863 whole entry partner): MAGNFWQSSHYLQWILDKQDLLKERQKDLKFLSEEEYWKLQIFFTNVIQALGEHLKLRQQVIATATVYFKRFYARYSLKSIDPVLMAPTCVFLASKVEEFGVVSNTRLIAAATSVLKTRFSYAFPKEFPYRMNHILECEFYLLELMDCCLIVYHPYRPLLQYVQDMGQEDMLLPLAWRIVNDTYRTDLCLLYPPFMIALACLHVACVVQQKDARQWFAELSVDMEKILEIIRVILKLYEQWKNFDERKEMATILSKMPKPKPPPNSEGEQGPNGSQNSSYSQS
Procedure: The enzyme has been purchase from Invitrogen (PV4402) as a dimer of full-length His-tagged recombinant human proteins.
(§1) Assays were performed in 384-well plates. The final read out was generated using an EnVision plate reader (Perkin-Elmer).

[3] = target: CDK19/Cyclin C (Homo sapiens (Human), UniProt Q9BWU1); test: CDK19/Cyclin C binding assay (LanthaScreen Eu-Kinase Binding Assay); conditions: read-out: CDK19-CYCC IC50
Sequence of CDK19/Cyclin C (Q9BWU1 whole entry): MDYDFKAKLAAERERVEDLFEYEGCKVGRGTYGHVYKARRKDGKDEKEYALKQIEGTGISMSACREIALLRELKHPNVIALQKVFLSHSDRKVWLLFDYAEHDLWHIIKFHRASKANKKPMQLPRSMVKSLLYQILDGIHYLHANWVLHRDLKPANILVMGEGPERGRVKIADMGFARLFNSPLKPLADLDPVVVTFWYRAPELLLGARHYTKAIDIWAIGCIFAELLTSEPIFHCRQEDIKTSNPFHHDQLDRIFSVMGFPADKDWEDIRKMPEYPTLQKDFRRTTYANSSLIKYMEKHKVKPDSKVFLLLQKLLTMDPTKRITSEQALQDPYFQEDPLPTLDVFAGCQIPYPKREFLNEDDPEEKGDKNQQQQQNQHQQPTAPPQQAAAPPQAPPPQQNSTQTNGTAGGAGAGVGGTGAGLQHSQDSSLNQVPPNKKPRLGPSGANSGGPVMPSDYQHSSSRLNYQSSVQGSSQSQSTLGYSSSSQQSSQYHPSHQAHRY
Sequence of CDK19/Cyclin C (P24863 whole entry partner): as the sequence (P24863 whole entry partner) above
Procedure: The binding assay relies on the LanthaScreen™ Eu-Kinase Binding Assay (Invitrogen).
Assay conditions were as indicated by the kit manufacturers with the following adaptations: • Assay buffer: 50 mM HEPES, pH 7.5, 1 mM EGTA, 0.01% Brij-35, 10 mM MgCl2 • Assay volume: 20 μl • Incubation time and temperature: 60 min at 25° C. • Cdk19-Cyclin C concentration: 2 nM • Tracer concentration: 20 nM • (Eu)-labelled anti-GST antibody concentration: 2 nM • Tested compound: Serial 1:3 dilutions • Final DMSO concentration in the assay: 1%
as §1

Sequence of Haspin kinase (Q8TF76 484-798): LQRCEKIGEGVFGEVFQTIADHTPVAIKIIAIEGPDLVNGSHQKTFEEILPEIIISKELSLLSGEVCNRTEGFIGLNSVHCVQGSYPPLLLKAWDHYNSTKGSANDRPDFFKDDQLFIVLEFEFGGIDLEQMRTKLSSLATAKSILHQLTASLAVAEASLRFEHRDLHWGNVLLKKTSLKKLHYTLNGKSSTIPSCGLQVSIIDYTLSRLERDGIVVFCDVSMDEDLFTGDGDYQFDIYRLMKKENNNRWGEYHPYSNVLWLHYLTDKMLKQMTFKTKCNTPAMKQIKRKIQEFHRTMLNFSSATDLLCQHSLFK

SMILES | IC50 [1] | IC50 [2] | IC50 [3]
CC1(C)Oc2cnccc2-c2[nH]c(C(N)=O)c(-c3ccc(S(N)(=O)=O)cc3)c21 [Example 32] | 0.235 µM | 0.0262 µM | 0.0813 µM
NC(=O)c1cc2c([nH]1)-c1ccncc1OC21CCN(CCC(F)(F)F)CC1 [Example 47] | 0.466 µM | 0.12 µM | 
CC1(C)Oc2cnccc2-c2[nH]c(C(=O)O)c(Br)c21 [Example 29] | 0.0893 µM | 0.0525 µM | 0.205 µM
CC1(C)Oc2cnccc2-c2[nH]c(C(N)=O)c(-c3ccccc3C(F)(F)F)c21 [Example 74] | 0.743 µM | 0.211 µM | 
Cl.NC(=O)c1cc2c([nH]1)-c1ccncc1OC21CCNCC1 [Example 12] | 0.0533 µM | 0.412 µM | 0.55 µM
CC1(C)Oc2cnccc2-c2[nH]c(C(N)=O)c(-c3ccc(F)cc3)c21 [Example 50] | 0.782 µM | 0.581 µM | 
CC1(C)Oc2cncc(-c3ccccc3)c2-c2[nH]c(C(N)=O)cc21 [Example 39] | 2.33 µM | 0.206 µM | 
NC(=O)c1cc2c([nH]1)-c1ccncc1OC21CCOCC1 [Example 20] | 0.206 µM | 0.0547 µM | 0.211 µM
CC1(C)Oc2cnccc2-c2[nH]c(C(=O)Nc3ccccc3)cc21 [Example 4] | 7.55 µM | 5.28 µM | 
CNC(=O)c1cc2c([nH]1)-c1ccncc1OC2(C)C [Example 3] | 0.18 µM | 0.0922 µM | 0.322 µM
CCn1c(C(N)=O)c(-c2ccccc2C(F)(F)F)c2c1-c1ccncc1OC2(C)C [Example 75] | 0.233 µM | 0.0144 µM | 0.0167 µM
CCn1c(C(N)=O)cc2c1-c1ccncc1O[C@H]2C1CCOCC1 (single isomer, unassigned) [Example 95] |  | < 0.00141 µM | 
CC1(C)Oc2cnccc2-c2[nH]c(C(=O)NC3CCNCC3)cc21 [Example 10] | 1.73 µM | 3.52 µM | 
CC1(C)Oc2cnccc2-c2[nH]c(C(N)=O)c(Cl)c21 [Example 28] | 0.0266 µM | 0.00932 µM | 0.0166 µM
CC1(C)Oc2cncc(Cl)c2-c2[nH]c(C(=O)O)cc21 [Example 35] | 0.151 µM | 0.0133 µM | 0.0314 µM
CC1Oc2cnccc2-c2[nH]c(C(N)=O)cc21 (stereo not drawn) [Example 58] | 0.247 µM | 0.0144 µM | 0.0255 µM

SMILES | IC50 [1] | IC50 [2] | IC50 [3]
CC1(C)Oc2cnccc2-c2[nH]c(C(N)=O)c(-c3ccccc3O)c21 [Example 64] | 0.656 µM | 0.112 µM | 
COC(=O)c1[nH]c2c(c1-c1ccc(S(N)(=O)=O)cc1)C(C)(C)Oc1cnccc1-2 [LXX] |  | 2.85 µM | 
CC1(C)Oc2cnccc2-c2c1cc(C(N)=O)n2CC(F)(F)F [Example 53] | 0.186 µM | 0.0216 µM | 0.0194 µM
CCN(CC)C(=O)c1cc2c([nH]1)-c1ccncc1OC2(C)C [Example 9] | 2.35 µM | 0.979 µM | 
CC1(C)Oc2cnccc2-c2c1cc(C(=O)O)n2Cc1ccccc1 [Example 24] | 20.4 µM | 10 µM | 
CC(C)C1(C)Oc2cnccc2-c2[nH]c(C(N)=O)cc21 (stereo not drawn) [Example 54] | 0.0529 µM | 0.0311 µM | 0.0971 µM
CCn1c(C(N)=O)c(Cl)c2c1-c1ccncc1OC21CCOCC1 [Example 104] | 0.00891 µM | 0.00241 µM | 
CC1(C)Oc2cnc(Cl)cc2-c2[nH]c(C(N)=O)cc21 [Example 38] | 6.83 µM | 0.461 µM | 
CCn1c(C(=O)O)cc2c1-c1ccncc1OC2(C)C [Example 44] | 6.73 µM | 0.312 µM | 
O=C(O)c1cc2c([nH]1)-c1ccncc1OC21CCN(C2CC2)CC1 [Example 17] | 5.96 µM | 1.53 µM | 
CC1(C)Oc2cnccc2-c2[nH]c(C(=O)O)c(C3=CCOCC3)c21 [Example 56] | 0.683 µM | 0.0785 µM | 0.0866 µM
CCN1CCC2(CC1)Oc1cnccc1-c1[nH]c(C(N)=O)cc12 [Example 42] | 0.153 µM | 0.197 µM | 
COCCn1c(C(=O)O)cc2c1-c1ccncc1OC2(C)C [Example 27] | 49.9 µM | 10 µM | 
NC(=O)c1cc2c(n1CCF)-c1ccncc1OC21CCOCC1 [Example 92] | 0.0256 µM | < 0.00141 µM | 
CC(=O)N1CCC2(CC1)Oc1cnccc1-c1[nH]c(C(N)=O)cc12 [Example 77] | 0.188 µM | 0.00748 µM | 
